Positions of bridges follow the written chain, without caps; N, C: chain ends. Chains are numbered I, II in the order given. No end group written: not given here.
Columns and labels:
[1] = Immunomodulatory effects of homologs of the β3 peptide
LP-BM5 retrovirus = assay: Spleen weight in LP-BM5 retrovirus-infected mice; format: in vivo, C57BL/6 mice; conditions: 200 μg peptide intraperitoneally two and six weeks after infection, relative to untreated infected animals
Text: FIG. 1. Spleen weight. The spleen weights were substantially (p<0.05) elevated in the infected mice relative to the uninfected animals. […] “a” indicates significant differences at p<0.05 compared with uninfected saline treatment.
(§1) Female C57BL/6 mice, four weeks old, were obtained from the Charles River Laboratories Inc. (Wilmington, Del.). Animals were cared for as required by the University of Arizona Committee on Animal Research. After two weeks housing in the Central Animal Facility, University of Arizona, they were randomly assigned to one of the following treatment groups: uninfected normal mice (four mice); LP-BM5-infected mice treated with saline (pyrogen free; six mice); LP-BM5-infected mice treated with 200 μg TCR Vβ3 monomer peptide (six mice); LP-BM5-infected mice treated with 200 μg TCR Vβ3 dimer peptide (six mice). […] Intraperitoneal administration of monomer and dimer peptides (dissolved in saline) was performed two and six weeks after LP-BM5 infection. Infection to of these mice with LP-BM5 retrovirus leads to the rapid induction of clinical symptoms with virtually no latent phase.

splenocyte T cells = assay: Con A-stimulated splenocyte proliferation (T cells) of LP-BM5-infected mice; format: in vivo, C57BL/6 mice; conditions: 200 μg/mouse, vs infected saline group
Text: FIG. 2. Con A-stimulated splenocyte proliferation. […] “a” indicates significant differences at p<0.05 compared with uninfected saline treatment group. “b” indicates significant differences at p<0.05 compared with infected saline treatment group.
as §1

splenocyte B cells = assay: LPS-stimulated splenocyte proliferation (B cells) of LP-BM5-infected mice; format: in vivo, C57BL/6 mice; conditions: 200 μg/mouse, vs infected saline group
Text: FIG. 3. LPS-stimulated splenocyte proliferation. […] “a” indicates significant differences at p<0.05 compared with uninfected saline treatment group. “b” indicates significant differences at […] compared with infected saline treatment group.
as §1

IFN-γ = IFN-γ production of splenocyte of LP-BM5-infected mice; format: in vivo, C57BL/6 mice; conditions: 200 μg/mouse, vs infected saline group
Text: FIG. 5. IFN-γ production of splenocyte. […] “a” indicates significant differences at P <0.05 compared with uninfected saline treatment group. “b” indicates significant differences at P<0.05 compared with infected saline treatment group.
as §1

IL-4 = assay: Interleukin-4 production of splenocyte of LP-BM5-infected mice; format: in vivo, C57BL/6 mice; conditions: 200 μg/mouse, mitogen-stimulated splenocytes, vs infected saline group
Text: FIG. 6. Interleukin-4 production of splenocyte. […] “a” indicates significant differences at P<0.05 compared with uninfected saline treatment group, “b” indicates significant differences at P<0.05 compared with infected saline treatment group.
as §1

IL-6 = assay: Interleukin-6 production of splenocyte of LP-BM5-infected mice; format: in vivo, C57BL/6 mice; conditions: 200 μg/mouse, mitogen-stimulated splenocytes, vs infected saline group
Text: FIG. 7. Interleukin-6 production of splenocyte. […] “a” indicates significant differences at p<0.05 compared with uninfected saline treatment group. “b” indicates significant differences at p<0.05 compared with infected saline treatment group.
as §1

IL-2 = IL-2 production of splenocyte of LP-BM5-infected mice; format: in vivo, C57BL/6 mice; conditions: 200 μg/mouse, vs infected saline group
Text: FIG. 4. IL-2 production of splenocyte. […] “a” indicates significant differences at p<0.05 compared with uninfected saline treatment group. “b” indicates significant differences at p<0.05 compared with infected saline treatment group.
as §1

aged mice = conditions: injection of peptide, not highly dimerised; cited from earlier work

Substance | Immunomodulatory effects compared with the β3 peptide [1] | Spleen weight (splenomegaly) (LP-BM5 retrovirus) | Spleen weight (splenomegaly) (LP-BM5 retrovirus; listed as Vβ3 peptide dimers) | Con A-stimulated splenocyte proliferation (T-cell proliferation) (splenocyte T cells) | Con A-stimulated splenocyte proliferation (T-cell proliferation) (splenocyte T cells; listed as Vβ3 peptide dimers) | LPS-stimulated splenocyte proliferation (B cell proliferation) (splenocyte B cells) | LPS-stimulated splenocyte proliferation (B cell proliferation) (splenocyte B cells; listed as Vβ3 peptide dimers) | IFN-γ production of splenocyte (IFN-γ) | IFN-γ production of splenocyte (IFN-γ; listed as Vβ3 peptide dimers) | Interleukin-4 production of splenocyte (IL-4) | Interleukin-4 production of splenocyte (IL-4; listed as Vβ3 peptide dimers) | Interleukin-6 production of splenocyte (IL-6) | IL-2 production of splenocyte (IL-2) | Immunosenescence (aged mice)
C S P K S G H D T V S W Y Q Q A (CSPKSGHDTVSWYQQA) [Pep Vβ5.2] | Active |  |  |  |  |  |  |  |  |  |  |  |  | 
TCR Vβ3 dimer: homodimer of two SEQ ID NO:1 peptide monomers, formed through a disulphide bond at the N-terminal cysteine (chain 1 CKPISGHNSLFWYRQT; chain 2 CKPISGHNSLFWYRQT; disulfide I:1-II:1) |  | significant reduction in spleen weight | at least as effective as the monomer | significantly (p<0.05) prevented the suppression of T-cell proliferation | at least as effective as the monomer | significantly (p<0.05) prevented the suppression of T-cell proliferation | at least as effective as the monomer | significantly (p<0.05) normalized IFN-γ production | at least as effective as the monomer | significantly (p<0.05) normalized IL-4 | at least as effective as the monomer | at least as effective as the monomer |  | 
CKPISGHNSLFWYRQT [TCR Vβ3 monomer, 16-mer TCR Vβ CDR1 peptide of T-cell receptor β chain clone YT35, monomer form, reference compound] |  | significant reduction in spleen weight |  | significantly (p<0.05) prevented the suppression of T-cell proliferation |  | significantly (p<0.05) prevented the suppression of T-cell proliferation |  | significantly (p<0.05) normalized IFN-γ production |  |  |  | significantly (p<0.05) normalized IL-6 | significantly (p<0.05) normalized IL-2 production | reduces immunosenescence in aged mice

Source: US7998926B2, “Dimerized T-cell receptor fragment, its compositions and use” (The Arizona Boad of Regents on Behfl of the University of …, priority 2001, dated 2011)
